Laboratory results taken from the kinase profiling compilation of Christmann-Franck et al. (2016).

What was measured:
Assay in all cases: radiometric filter-binding kinase assay
[1] = biological target: AURKA (human) (UniProt O14965)
[2] = biological target: MAP3K1 (human) (UniProt Q13233)
[3] = biological target: MAPK9 (human) (UniProt P45984)
[4] = biological target: HIPK1 (human) (UniProt Q86Z02)
[5] = biological target: MAP2K2 (human) (UniProt P36507)
[6] = biological target: PRKCZ (human) (UniProt Q05513)
[7] = biological target: SRC (human) (UniProt P12931)
[8] = biological target: CHEK1 (human) (UniProt O14757)
[9] = biological target: MYLK (human) (UniProt Q15746); settings: compound 10.0 µM
[10] = biological target: AURKB (human) (UniProt Q96GD4)
[11] = biological target: EEF2K (human) (UniProt O00418)
[12] = biological target: CSNK1D (human) (UniProt P48730)
[13] = biological target: MAP3K9 (human) (UniProt P80192)
[14] = biological target: PKN2 (human) (UniProt Q16513)
[15] = biological target: HIPK2 (human) (UniProt Q9H2X6)
[16] = biological target: SYK (human) (UniProt P43405); settings: compound 10.0 µM
[17] = biological target: IGF1R (human) (UniProt P08069)
[18] = biological target: EPHB4 (human) (UniProt P54760)
[19] = biological target: FLT1 (human) (UniProt P17948)
[20] = system: PAK2 (human), Q13177 [T402E]
[21] = system: AKT2 (human), P31751 [S474D]
[22] = biological target: MARK4 (human) (UniProt Q96L34)
[23] = biological target: TTK (human) (UniProt P33981)
[24] = biological target: GCK (human) (UniProt Q12851)
[25] = biological target: PAK6 (human) (UniProt Q9NQU5); settings: compound 10.0 µM
[26] = biological target: MAPK1 (human) (UniProt P28482)
[27] = biological target: STK11 CAB39 STRADA (human) (UniProt Q9Y376+Q7RTN6+Q15831)
[28] = biological target: MAPK13 (human) (UniProt O15264)
[29] = biological target: MAP3K5 (human) (UniProt Q99683)
[30] = biological target: YES1 (human) (UniProt P07947)
[31] = biological target: EPHB1 (human) (UniProt P54762)
[32] = biological target: MAPK10 (human) (UniProt P53779)
[33] = biological target: GSK3B (human) (UniProt P49841)
[34] = biological target: MELK (human) (UniProt Q14680)
[35] = biological target: FGFR1 (human) (UniProt P11362); settings: compound 10.0 µM

Sequence of CSNK1D (human) (P48730 whole entry, looked up): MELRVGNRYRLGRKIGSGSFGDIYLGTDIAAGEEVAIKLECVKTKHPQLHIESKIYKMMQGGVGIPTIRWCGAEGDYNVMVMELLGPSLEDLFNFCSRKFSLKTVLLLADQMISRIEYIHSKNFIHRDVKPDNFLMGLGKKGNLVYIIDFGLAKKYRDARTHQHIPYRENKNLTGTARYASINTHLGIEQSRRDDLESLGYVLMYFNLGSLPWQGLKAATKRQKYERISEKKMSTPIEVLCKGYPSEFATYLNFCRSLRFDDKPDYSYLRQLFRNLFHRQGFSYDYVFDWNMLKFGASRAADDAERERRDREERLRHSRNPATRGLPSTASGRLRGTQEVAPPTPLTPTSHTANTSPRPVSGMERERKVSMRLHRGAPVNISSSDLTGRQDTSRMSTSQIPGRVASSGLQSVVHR
Sequence of CHEK1 (human) (O14757 whole entry, looked up): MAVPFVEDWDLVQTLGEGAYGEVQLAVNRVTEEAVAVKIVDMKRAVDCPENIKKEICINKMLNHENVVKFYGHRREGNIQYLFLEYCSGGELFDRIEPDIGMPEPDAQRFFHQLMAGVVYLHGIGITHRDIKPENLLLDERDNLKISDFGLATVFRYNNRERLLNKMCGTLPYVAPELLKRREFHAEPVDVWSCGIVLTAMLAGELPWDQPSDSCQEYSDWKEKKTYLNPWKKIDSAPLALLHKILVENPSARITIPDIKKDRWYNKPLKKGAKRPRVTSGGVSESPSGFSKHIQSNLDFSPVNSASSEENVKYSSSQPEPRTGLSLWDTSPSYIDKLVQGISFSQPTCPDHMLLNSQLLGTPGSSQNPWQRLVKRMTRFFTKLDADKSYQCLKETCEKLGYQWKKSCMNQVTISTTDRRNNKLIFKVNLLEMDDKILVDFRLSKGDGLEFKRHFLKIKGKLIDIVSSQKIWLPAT
Sequence of AURKA (human) (O14965 whole entry, looked up): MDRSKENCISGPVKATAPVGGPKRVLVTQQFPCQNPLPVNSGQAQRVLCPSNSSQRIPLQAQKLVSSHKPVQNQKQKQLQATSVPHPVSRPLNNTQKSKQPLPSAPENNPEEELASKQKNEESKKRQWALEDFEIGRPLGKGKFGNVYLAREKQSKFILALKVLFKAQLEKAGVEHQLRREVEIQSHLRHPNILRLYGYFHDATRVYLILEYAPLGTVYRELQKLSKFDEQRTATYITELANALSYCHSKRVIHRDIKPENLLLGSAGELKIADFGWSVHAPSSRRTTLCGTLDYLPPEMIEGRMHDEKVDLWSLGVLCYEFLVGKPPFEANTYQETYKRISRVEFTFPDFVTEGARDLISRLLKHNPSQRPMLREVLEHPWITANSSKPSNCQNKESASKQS
Sequence of EEF2K (human) (O00418 whole entry, looked up): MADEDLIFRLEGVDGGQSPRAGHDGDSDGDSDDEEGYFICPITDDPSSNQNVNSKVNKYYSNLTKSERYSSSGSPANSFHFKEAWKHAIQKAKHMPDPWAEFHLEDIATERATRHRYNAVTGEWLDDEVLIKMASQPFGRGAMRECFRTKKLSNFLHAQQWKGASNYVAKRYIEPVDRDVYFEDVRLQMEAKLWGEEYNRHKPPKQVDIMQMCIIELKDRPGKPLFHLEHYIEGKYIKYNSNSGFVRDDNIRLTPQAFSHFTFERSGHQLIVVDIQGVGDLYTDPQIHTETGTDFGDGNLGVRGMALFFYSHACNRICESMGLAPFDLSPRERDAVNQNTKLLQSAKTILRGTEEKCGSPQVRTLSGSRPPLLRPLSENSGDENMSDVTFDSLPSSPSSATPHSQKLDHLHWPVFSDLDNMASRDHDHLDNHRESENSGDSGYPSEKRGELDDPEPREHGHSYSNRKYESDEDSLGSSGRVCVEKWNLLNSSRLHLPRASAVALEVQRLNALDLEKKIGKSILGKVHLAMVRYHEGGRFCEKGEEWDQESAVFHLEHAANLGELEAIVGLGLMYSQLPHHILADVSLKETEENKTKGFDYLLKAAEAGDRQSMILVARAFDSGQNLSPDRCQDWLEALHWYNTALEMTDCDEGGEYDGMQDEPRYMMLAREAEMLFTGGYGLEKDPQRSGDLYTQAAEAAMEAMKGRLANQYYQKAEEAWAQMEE
Sequence of PRKCZ (human) (Q05513 whole entry, looked up): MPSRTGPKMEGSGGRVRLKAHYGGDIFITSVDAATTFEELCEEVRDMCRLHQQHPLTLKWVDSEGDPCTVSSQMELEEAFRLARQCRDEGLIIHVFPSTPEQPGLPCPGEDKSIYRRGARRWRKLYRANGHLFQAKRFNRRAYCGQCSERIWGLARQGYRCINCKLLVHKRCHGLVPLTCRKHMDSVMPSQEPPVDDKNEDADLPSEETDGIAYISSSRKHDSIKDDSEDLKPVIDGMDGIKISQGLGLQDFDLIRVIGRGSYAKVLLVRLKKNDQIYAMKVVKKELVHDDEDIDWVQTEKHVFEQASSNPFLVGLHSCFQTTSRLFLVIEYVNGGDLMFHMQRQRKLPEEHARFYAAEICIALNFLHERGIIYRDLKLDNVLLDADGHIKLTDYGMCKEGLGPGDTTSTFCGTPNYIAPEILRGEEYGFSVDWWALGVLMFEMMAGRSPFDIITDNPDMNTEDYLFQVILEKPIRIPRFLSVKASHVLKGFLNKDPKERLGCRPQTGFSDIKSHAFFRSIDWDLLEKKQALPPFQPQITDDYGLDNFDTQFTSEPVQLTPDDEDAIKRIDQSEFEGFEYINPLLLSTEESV
Sequence of MAPK13 (human) (O15264 whole entry, looked up): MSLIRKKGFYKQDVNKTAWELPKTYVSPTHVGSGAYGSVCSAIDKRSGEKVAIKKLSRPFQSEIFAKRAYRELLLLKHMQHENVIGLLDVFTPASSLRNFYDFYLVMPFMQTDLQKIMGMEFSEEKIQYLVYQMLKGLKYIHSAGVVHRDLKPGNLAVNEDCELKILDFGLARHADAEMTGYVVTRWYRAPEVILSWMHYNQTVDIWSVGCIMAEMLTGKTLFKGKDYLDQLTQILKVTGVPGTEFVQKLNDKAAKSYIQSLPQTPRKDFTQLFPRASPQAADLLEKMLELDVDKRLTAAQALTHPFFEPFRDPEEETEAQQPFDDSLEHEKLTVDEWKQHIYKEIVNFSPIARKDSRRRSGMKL
Sequence of STK11 CAB39 STRADA (human) (Q15831 whole entry, looked up): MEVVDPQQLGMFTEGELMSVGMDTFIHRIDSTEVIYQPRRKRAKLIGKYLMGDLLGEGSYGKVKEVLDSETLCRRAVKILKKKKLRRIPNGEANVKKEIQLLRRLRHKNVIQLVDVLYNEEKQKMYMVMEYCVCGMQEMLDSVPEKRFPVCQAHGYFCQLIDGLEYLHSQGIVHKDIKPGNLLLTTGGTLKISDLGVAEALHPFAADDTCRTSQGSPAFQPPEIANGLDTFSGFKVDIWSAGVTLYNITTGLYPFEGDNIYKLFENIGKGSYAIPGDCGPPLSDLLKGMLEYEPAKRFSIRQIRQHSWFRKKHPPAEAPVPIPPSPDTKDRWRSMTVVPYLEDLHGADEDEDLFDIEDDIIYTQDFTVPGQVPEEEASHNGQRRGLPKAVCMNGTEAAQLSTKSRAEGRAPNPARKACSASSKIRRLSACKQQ
Sequence of STK11 CAB39 STRADA (human) (Q7RTN6 whole entry, looked up): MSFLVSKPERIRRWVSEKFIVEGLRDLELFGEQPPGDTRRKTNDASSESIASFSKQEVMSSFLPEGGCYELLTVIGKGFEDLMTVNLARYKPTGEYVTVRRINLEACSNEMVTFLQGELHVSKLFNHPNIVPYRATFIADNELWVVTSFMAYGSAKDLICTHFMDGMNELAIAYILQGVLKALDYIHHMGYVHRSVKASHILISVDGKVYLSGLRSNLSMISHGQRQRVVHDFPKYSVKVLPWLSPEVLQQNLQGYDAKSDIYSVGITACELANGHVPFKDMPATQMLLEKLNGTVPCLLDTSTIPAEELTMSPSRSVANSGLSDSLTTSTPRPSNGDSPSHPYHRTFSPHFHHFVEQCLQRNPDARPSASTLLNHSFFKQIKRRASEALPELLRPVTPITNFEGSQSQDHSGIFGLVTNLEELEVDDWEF
Sequence of STK11 CAB39 STRADA (human) (Q9Y376 whole entry, looked up): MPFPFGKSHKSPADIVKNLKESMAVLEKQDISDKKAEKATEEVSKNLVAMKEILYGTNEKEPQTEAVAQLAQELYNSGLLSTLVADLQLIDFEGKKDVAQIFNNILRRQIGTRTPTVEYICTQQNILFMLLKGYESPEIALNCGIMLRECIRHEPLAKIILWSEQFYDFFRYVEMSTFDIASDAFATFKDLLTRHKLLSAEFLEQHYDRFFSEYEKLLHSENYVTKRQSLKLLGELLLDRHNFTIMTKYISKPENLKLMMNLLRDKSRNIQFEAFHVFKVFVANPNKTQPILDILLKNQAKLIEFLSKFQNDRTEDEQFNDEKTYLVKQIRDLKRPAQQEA
Sequence of AURKB (human) (Q96GD4 whole entry, looked up): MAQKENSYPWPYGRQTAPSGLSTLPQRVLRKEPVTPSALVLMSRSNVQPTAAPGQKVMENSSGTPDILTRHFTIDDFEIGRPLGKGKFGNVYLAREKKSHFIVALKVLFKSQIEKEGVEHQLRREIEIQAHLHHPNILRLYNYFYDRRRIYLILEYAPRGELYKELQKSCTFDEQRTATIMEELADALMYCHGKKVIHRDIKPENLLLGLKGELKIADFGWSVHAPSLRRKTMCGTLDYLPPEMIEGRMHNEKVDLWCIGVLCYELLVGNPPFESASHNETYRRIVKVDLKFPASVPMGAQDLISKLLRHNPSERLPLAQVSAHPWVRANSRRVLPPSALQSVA
Sequence of MAP2K2 (human) (P36507 whole entry, looked up): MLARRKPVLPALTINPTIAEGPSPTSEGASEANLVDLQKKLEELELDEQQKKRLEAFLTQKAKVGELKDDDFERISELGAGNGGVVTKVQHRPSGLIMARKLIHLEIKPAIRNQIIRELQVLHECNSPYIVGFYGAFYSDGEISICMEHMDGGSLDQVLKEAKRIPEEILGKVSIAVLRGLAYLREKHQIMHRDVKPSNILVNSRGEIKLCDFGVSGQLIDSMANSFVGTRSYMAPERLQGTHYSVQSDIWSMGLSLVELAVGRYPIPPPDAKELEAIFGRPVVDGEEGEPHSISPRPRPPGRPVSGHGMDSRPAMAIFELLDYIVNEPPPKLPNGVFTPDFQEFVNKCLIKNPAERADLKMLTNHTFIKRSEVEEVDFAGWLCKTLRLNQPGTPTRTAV

SMILES: O=C(NOCC(O)CO)c1ccc(F)c(F)c1Nc1ccc(I)cc1Cl (stereo not drawn)
- residual activity ([1]; compound 1.0 µM): 103%
- residual activity ([1]; compound 10.0 µM): 104%
- residual activity ([2]; compound 1.0 µM): 88%
- residual activity ([2]; compound 10.0 µM): 93%
- residual activity ([3]; compound 1.0 µM): 88%
- residual activity ([3]; compound 10.0 µM): 92%
- residual activity ([4]; compound 1.0 µM): 96%
- residual activity ([4]; compound 10.0 µM): 85%
- residual activity ([5]; compound 1.0 µM): 55%
- residual activity ([5]; compound 10.0 µM): 23%
- residual activity ([6]; compound 1.0 µM): 89%
- residual activity ([6]; compound 10.0 µM): 91%
- residual activity ([7]; compound 1.0 µM): 124%
- residual activity ([7]; compound 10.0 µM): 72%
- residual activity ([8]; compound 1.0 µM): 116%
- residual activity ([8]; compound 10.0 µM): 119%
- residual activity [9]: 86%
- residual activity ([10]; compound 1.0 µM): 99%
- residual activity ([10]; compound 10.0 µM): 78%
- residual activity ([11]; compound 1.0 µM): 84%
- residual activity ([11]; compound 10.0 µM): 92%
- residual activity ([12]; compound 1.0 µM): 96%
- residual activity ([12]; compound 10.0 µM): 97%
- residual activity ([13]; compound 1.0 µM): 84%
- residual activity ([13]; compound 10.0 µM): 85%
- residual activity ([14]; compound 1.0 µM): 70%
- residual activity ([14]; compound 10.0 µM): 79%
- residual activity ([15]; compound 1.0 µM): 102%
- residual activity ([15]; compound 10.0 µM): 106%
- residual activity [16]: 77%
- residual activity ([17]; compound 1.0 µM): 76%
- residual activity ([17]; compound 10.0 µM): 98%
- residual activity ([18]; compound 1.0 µM): 98%
- residual activity ([18]; compound 10.0 µM): 86%
- residual activity ([19]; compound 1.0 µM): 98%
- residual activity ([19]; compound 10.0 µM): 42%
- residual activity ([20]; compound 1.0 µM): 95%
- residual activity ([20]; compound 10.0 µM): 80%
- residual activity ([21]; compound 1.0 µM): 97%
- residual activity ([21]; compound 10.0 µM): 90%
- residual activity ([22]; compound 1.0 µM): 119%
- residual activity ([22]; compound 10.0 µM): 108%
- residual activity ([23]; compound 1.0 µM): 105%
- residual activity ([23]; compound 10.0 µM): 98%
- residual activity ([24]; compound 1.0 µM): 79%
- residual activity ([24]; compound 10.0 µM): 91%
- residual activity [25]: 103%
- residual activity ([26]; compound 1.0 µM): 83%
- residual activity ([26]; compound 10.0 µM): 79%
- residual activity ([27]; compound 1.0 µM): 80%
- residual activity ([27]; compound 10.0 µM): 77%
- residual activity ([28]; compound 1.0 µM): 84%
- residual activity ([28]; compound 10.0 µM): 97%
- residual activity ([29]; compound 1.0 µM): 102%
- residual activity ([29]; compound 10.0 µM): 112%
- residual activity ([30]; compound 1.0 µM): 76%
- residual activity ([30]; compound 10.0 µM): 79%
- residual activity ([31]; compound 1.0 µM): 107%
- residual activity ([31]; compound 10.0 µM): 92%
- residual activity ([32]; compound 1.0 µM): 83%
- residual activity ([33]; compound 1.0 µM): 89%
- residual activity ([33]; compound 10.0 µM): 89%
- residual activity ([34]; compound 1.0 µM): 109%
- residual activity ([34]; compound 10.0 µM): 106%

SMILES: CC(C)C[C@H](NC(=O)CNC(=O)c1cc(Cl)ccc1Cl)B1OC(=O)CC(CC(=O)O)(C(=O)O)O1 (stereo partly drawn)
- residual activity ([1]; compound 10.0 µM): 105%
- residual activity ([2]; compound 10.0 µM): 92%
- residual activity ([3]; compound 10.0 µM): 87%
- residual activity ([4]; compound 10.0 µM): 111%
- residual activity ([5]; compound 10.0 µM): 94%
- residual activity ([6]; compound 10.0 µM): 95%
- residual activity ([7]; compound 10.0 µM): 86%
- residual activity ([8]; compound 10.0 µM): 107%
- residual activity [9]: 103%
- residual activity ([10]; compound 10.0 µM): 75%
- residual activity ([11]; compound 10.0 µM): 83%
- residual activity ([12]; compound 10.0 µM): 81%
- residual activity ([13]; compound 10.0 µM): 75%
- residual activity ([14]; compound 10.0 µM): 86%
- residual activity ([15]; compound 10.0 µM): 88%
- residual activity [16]: 66%
- residual activity ([17]; compound 10.0 µM): 87%
- residual activity ([18]; compound 10.0 µM): 91%
- residual activity ([19]; compound 10.0 µM): 64%
- residual activity ([20]; compound 10.0 µM): 92%
- residual activity ([21]; compound 10.0 µM): 82%
- residual activity ([22]; compound 10.0 µM): 86%
- residual activity ([23]; compound 10.0 µM): 93%
- residual activity [35]: 69%
- residual activity [25]: 68%
- residual activity ([26]; compound 10.0 µM): 86%
- residual activity ([27]; compound 10.0 µM): 124%
- residual activity ([28]; compound 10.0 µM): 98%
- residual activity ([29]; compound 10.0 µM): 81%
- residual activity ([30]; compound 10.0 µM): 82%
- residual activity ([31]; compound 10.0 µM): 75%
- residual activity ([32]; compound 10.0 µM): 91%
- residual activity ([33]; compound 10.0 µM): 88%
- residual activity ([34]; compound 10.0 µM): 80%
